The test deals with C. albicans biofilms. The experiment in a line: Susceptibility testing of preformed C. albicans biofilms in CaBChip (FUN 1 fluorescence). Type of test: cell-based, Candida albicans strain SC5314. Particulars: 24 h preformed biofilms on CaBChip, 24 h drug exposure; for SMIC50 / SMIC80: FUN 1 staining. The protocol: A four-factor, two-level factorial design was performed using MINITAB (Minitab Solutions Inc., State College, Pa.) and DESIGN EXPERT (Stat-Ease Inc., Minneapolis, Minn.) software to obtain optimal conditions of media concentration, seeding density, collagen concentration and PSMA coating concentration for wash-resistant biofilm growth on the CaBChip. The response (output) metrics were true biofilm yield and robust attachment, measured using microarray scanner and light microscope. For preparation of inocula for printing and biofilm formation in the CaBChip, cells harvested from overnight YPD cultures were washed twice in sterile phosphate buffered saline (PBS; 10 mM phosphate buffer, 2.7 mM potassium chloride, 137 mM sodium chloride (pH 7.4) (Sigma) by centrifugation at 3000 g. The cells were then resuspended in Reconstruction buffer (0.2N NaOH solution with 2.2% (wt/vol) Sodium Bicarbonate and 4.8% (wt/vol) HEPES). One hundred fold dilutions of the suspended cells were prepared and counted using a hemocytometer on a bright field microscope. Following count, a suspension of cells was prepared in reconstruction buffer at a cell density of 5×10^7 cells/mL, which was diluted ten times by addition of 10×RPMI-1640 supplemented with L-glutamine and buffered with morpholinepropanesulfonic acid (Angus Buffers and Chemicals, Niagara Falls, N.Y.) containing collagen (1.8 mg/ml) (Type 1 from rat tail, BD Biosciences, Bedford, Mass.), to give a final concentration of cells of […]. The suspension containing yeast cells, collagen and media was printed (50 nL per spot) on the functionalized PSMA-coated glass slides using a microarray spotter (Omnigrid Micro, Digilab Inc., Holliston, Mass.). Printing was carried out by non-contact deposition using conically tapered 190μ orifice ceramic tips (Digilab). The resulting spots were approximately 700μ in diameter, spaced 1.2 mm apart; spots were printed in an array of 48 rows and 16 columns. In a standard print nm, the tips were primed, rinsed in running water and vacuum dried twice after each loading and printing step. The cell suspension was kept on ice to prevent the gelation of collagen before printing and agitated gently just prior to placement on the printing robot to ensure a uniformly mixed cell suspension. A relative humidity of 97% was maintained during printing to prevent the drying of the biofilm spots. All microarray operations such as aspiration, dispensing, priming, printing and spatial distribution of array were controlled by AxSys program (Digilab). All surfaces, including the source plate station, wash and vacuum station, vacuum slide platter and printing chamber were sterilized by wiping with 70% isopropanol. In our experience, these procedures ensure that there is no detectable contamination of wells in the plates or of spots on the microarray. After printing, the slides were placed inside humidifier chambers (Arraylt Corporation, Sunnyvale, Calif.), which were placed inside a 37 C incubator over different periods of time to allow for biofilm formation.
FUN 1 [2-chloro-4-(2,3-dihydro-3-methyl-(benzo-1,3-thiazol-2-yl)-methylidene)-1-phenylquinolinium iodide] (Invitrogen Corp., Carlsbad, Calif.) was used to stain and determine viability (levels of metabolic activity) of C. albicans cells within the biofilms formed in the chips. This membrane-permeable fluorescent dye is internalized and processed by metabolically active fungal cells, and has excitation and emission spectra that are compatible with the sets of lasers and filters installed in most microarray scanners. Briefly, the CaBChip was stained with 0.5 tM FUN 1, by simply dunking the entire CaBChip in a staining jar, and incubated in the dark at 37° C. for 30 min. Following incubation, the chip was washed three times by dunking in PBS in order to remove excess stain. The slides were then air-dried and scanned in a microarray scanner (Genepix Personal4100A, Axon Instruments, Union City, Calif.). […]

Take `C[C@@H]1[C@H](O)[C@@H](C)/C=C/C=C/C=C/C=C/C=C/C=C/C=C/[C@H](O[C@@H]2O[C@H](C)[C@@H](O)[C@H](N)[C@@H]2O)C[C@@H]2O[C@](O)(C[C@@H](O)C[C@@H](O)[C@H](O)CC[C@@H](O)C[C@@H](O)CC(=O)O[C@H]1C)C[C@H](O)[C@H]2C(=O)O` [amphotericin B]: the “susceptibility of biofilms formed on CaBChip (in words)” value is on record as “effective against biofilms formed on CaBChip, but only at relatively high concentrations”; the SMIC50 turned out to be 0.5 µg/mL; the SMIC80 was determined as 1 µg/mL. Besides, under “FUN 1 fluorescence, Hill equation fit”, the “calculated IC50” value is 0.27 ± 0.04 µg/mL.
As usually defined, the IC50 is the concentration needed to halve the response being measured. For `OC(Cn1cncn1)(Cn1cncn1)c1ccc(F)cc1F` [fluconazole], the “susceptibility of biofilms formed on CaBChip (in words)” value is listed as “intrinsically resistant to fluconazole”, the SMIC50 is listed as > 1,024 μg/ml and the SMIC80 was > 1,024 μg/ml. Also, the IC50 (Candida albicans, FUN 1 fluorescence, Hill equation fit, read-out: calculated IC50) is more than 1020 µg/mL.

Source of the values: patent US10465227B2, “Microbial testing devices, methods of making microbial testing devices and methods of identifying novel antimicrobial drug candidates” (BOARD OF REGENTS, THE UNIVERSITY OF TEXAS SYSTEM, priority 2010, dated 2019).
